# Reference: paper PMC10023787, “Trio-pharmacophore DNA-encoded chemical library for simultaneous selection of fragments and linkers” (Nature Communications, 2023)
# Read-outs that look alike come from different tables or passages of the source.
# What was measured:
# MMP-9 = target: T1, MMP-9 (Homo sapiens, UniProt P14780); test: MMP-9 inhibition assay (fluorogenic peptide substrate); type: biochemical; set-up: remaining enzyme activity (% of control): scale not given here
# T1 construct: purchased Sino Biological 10327-HNAH
# T1 sequence (P14780 107-707 limits assumed): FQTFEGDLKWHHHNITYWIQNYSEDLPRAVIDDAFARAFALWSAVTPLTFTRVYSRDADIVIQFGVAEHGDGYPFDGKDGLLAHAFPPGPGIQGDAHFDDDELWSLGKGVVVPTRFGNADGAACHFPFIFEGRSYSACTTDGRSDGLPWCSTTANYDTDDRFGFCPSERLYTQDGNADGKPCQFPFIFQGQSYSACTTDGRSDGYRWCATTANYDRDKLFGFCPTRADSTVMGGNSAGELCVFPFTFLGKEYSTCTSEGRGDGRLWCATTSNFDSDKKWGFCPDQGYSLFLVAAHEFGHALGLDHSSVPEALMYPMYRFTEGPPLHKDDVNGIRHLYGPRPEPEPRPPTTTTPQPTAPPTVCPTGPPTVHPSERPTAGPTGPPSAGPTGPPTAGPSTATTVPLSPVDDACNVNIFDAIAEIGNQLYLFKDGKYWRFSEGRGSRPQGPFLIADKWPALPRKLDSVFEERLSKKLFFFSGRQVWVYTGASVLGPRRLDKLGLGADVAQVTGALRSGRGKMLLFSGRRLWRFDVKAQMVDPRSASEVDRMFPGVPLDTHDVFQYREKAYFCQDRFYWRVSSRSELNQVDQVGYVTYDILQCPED
# Procedure: (§1) The inhibition by the small molecule compounds against MMP-2/MMP-9 was measured using an assay probing the enzyme proteolytic activity on the substrate DNP-Pro-Leu-Gly-Met-Trp-Ser-Arg (Enzo Life Sciences, USA). All assays were performed in the assay buffer containing 50 mM Tris, 100 mM NaCl. 5 mM CaCl2, and 0.1% Brij 35, pH 7.5. Human proMMP-2 and proMMP-9 were purchased from Sino biological (Germany). The proMMPs were activated by 1 mM APMA in the assay buffer at 37 °C for 2 h. After activation, MMP-2 was diluted to 6.5 nM of final assay concentration, and MMP-9 was diluted by the buffer to reach 10 nM of final assay concentration. In each well, 49 μl of enzyme solution was incubated with 1 μl of compounds of series of concentration (nM-mM in DMSO) at RT for 30 min. 2 μl of the FRET substrate was added right before the measurement at a final concentration of 25 μM. The rate of hydrolysis was monitored by quantifying the emission at 360 nm (ex: 280 nm). The emission was measured with intervals of the 30 s for 30 min with Synergy H1 Plate Reader (Agilent, USA). The measurements were done in triplicate. […] Then, curves were plotted as a function of the concentration of the inhibitor against the relative enzyme activity. Vmax was derived from the detected […] signal for each concentration and logistic fitting was performed to obtain IC50 values using Origin 2019b (OriginLab).
# MMP-2 = target: T2, MMP-2 (Homo sapiens, UniProt P08253); test: MMP-2 inhibition assay (fluorogenic peptide substrate); type: biochemical
# T2 construct: purchased Sino Biological 10082-HNAH
# T2 sequence (P08253 110-660): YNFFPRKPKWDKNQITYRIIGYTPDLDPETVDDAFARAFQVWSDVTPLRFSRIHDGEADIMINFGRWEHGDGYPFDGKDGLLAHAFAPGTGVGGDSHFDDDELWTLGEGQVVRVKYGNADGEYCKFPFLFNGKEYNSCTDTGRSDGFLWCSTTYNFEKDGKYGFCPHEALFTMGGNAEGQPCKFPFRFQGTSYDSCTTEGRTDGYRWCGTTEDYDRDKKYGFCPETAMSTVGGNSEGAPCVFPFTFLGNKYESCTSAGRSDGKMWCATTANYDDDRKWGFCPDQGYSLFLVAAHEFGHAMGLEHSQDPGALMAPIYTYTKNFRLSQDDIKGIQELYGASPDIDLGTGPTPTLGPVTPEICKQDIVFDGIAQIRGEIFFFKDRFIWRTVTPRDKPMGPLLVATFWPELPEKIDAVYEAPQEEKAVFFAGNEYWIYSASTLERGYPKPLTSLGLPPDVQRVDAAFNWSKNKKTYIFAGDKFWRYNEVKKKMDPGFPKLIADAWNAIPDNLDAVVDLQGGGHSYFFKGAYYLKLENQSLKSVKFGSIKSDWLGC
# Procedure: as §1
# [1] = Figure 5d; fragment combination joined by linker; n.d: not detected; read-out: MMP9 IC50
# [2] = Figure 5d; fragment combination joined by linker; n.d: not detected; read-out: MMP2 IC50
# [3] = MMP-2; concentration 1043.00 µM
# [4] = mean ± SE; n.d: not detected; Fig. 5d unit inferred, µM; read-out: IC50
# [5] = mean ± SE; n.d: not detected; Fig. 5e prints no unit, µM; read-out: IC50
smiles,measurement,setting,value
Cn1c(O)nc2cc(C(=O)NCC34CC5CC(CC(C5)C3)C4)cnc21 [66_826 1],IC50,MMP-9; [1],234 µM
O=C(/C=C/CCCCNC(=O)c1cncc(O)c1)CC(=O)NCC12CC3CC(CC(C3)C1)C2 [66_828 12],IC50,MMP-2; [2],488 µM
same,IC50,MMP-9; [1],77.4 µM
O=C(CCC(=O)NCc1c[nH]nn1)NCCOCCOCCNC(=O)CNC(=O)NC12CC3CC(CC(C3)C1)C2 [66+787 Linker 10],remaining activity (%),MMP-2; MMP-2; concentration 0.07 µM,89.74
same,remaining activity (%),MMP-2; MMP-2; concentration 0.33 µM,85.09
same,remaining activity (%),MMP-2; MMP-2; concentration 1.67 µM,89.74
same,remaining activity (%),MMP-2; MMP-2; concentration 8.34 µM,82.52
same,remaining activity (%),MMP-2; MMP-2; concentration 41.72 µM,81.27
same,remaining activity (%),MMP-2; MMP-2; concentration 208.60 µM,74.95
same,remaining activity (%),MMP-2; [3],25.65
same,remaining activity (%),MMP-2; MMP-2; concentration […],97.97
same,IC50,MMP-2; [4],578 ± 96 µM
same,remaining enzyme activity (% of control),MMP-9; MMP-9; concentration 0.07 µM,99.26
same,remaining enzyme activity (% of control),MMP-9; MMP-9; concentration 0.33 µM,98.95
same,remaining enzyme activity (% of control),MMP-9; MMP-9; concentration 1.67 µM,95.42
same,remaining enzyme activity (% of control),MMP-9; MMP-9; concentration 8.34 µM,94.84
same,remaining enzyme activity (% of control),MMP-9; MMP-9; concentration 41.72 µM,86.90
same,remaining enzyme activity (% of control),MMP-9; MMP-9; concentration 208.60 µM,67.40
same,remaining enzyme activity (% of control),MMP-9; MMP-9; concentration 1043.00 µM,51.64
Cn1c(O)nc2cc(C(=O)NCCNC(=O)CSCCNC(=O)Cn3cnc4c(oc5ccccc54)c3=O)cnc21 [182+826 Linker 24],remaining activity (%),"MMP-2; MMP-2, concentration 0.09 µM",97.26
same,remaining activity (%),"MMP-2; MMP-2, concentration 0.36 µM",110.41
same,remaining activity (%),"MMP-2; MMP-2, concentration 1.46 µM",108.70
same,remaining activity (%),"MMP-2; MMP-2, concentration 5.83 µM",101.42
same,remaining activity (%),"MMP-2; MMP-2, concentration 23.31 µM",109.20
same,remaining activity (%),"MMP-2; MMP-2, concentration 93.25 µM",102.62
same,remaining activity (%),"MMP-2; MMP-2, concentration 373.00 µM",72.08
same,remaining enzyme activity (% of control),"MMP-9; MMP-9, concentration 0.09 µM",91.31
same,remaining enzyme activity (% of control),"MMP-9; MMP-9, concentration 0.36 µM",105.17
same,remaining enzyme activity (% of control),"MMP-9; MMP-9, concentration 1.46 µM",94.51
same,remaining enzyme activity (% of control),"MMP-9; MMP-9, concentration 5.83 µM",85.81
same,remaining enzyme activity (% of control),"MMP-9; MMP-9, concentration 23.31 µM",80.00
same,remaining enzyme activity (% of control),"MMP-9; MMP-9, concentration 93.25 µM",70.35
same,remaining enzyme activity (% of control),"MMP-9; MMP-9, concentration 373.00 µM",44.33
same,IC50,MMP-9; [5],281 ± 97.2 µM
O=C(Cn1cnc2c(oc3ccccc32)c1=O)NCCCCCCCCNC(=O)c1cncc(O)c1 [182_828 4],IC50,MMP-2; [2],188 µM
same,IC50,MMP-9; [1],233 µM
Cn1c(O)nc2cc(C(=O)NCCSCC(=O)NCC34CC5CC(CC(C5)C3)C4)cnc21 [66+826 Linker 24],remaining activity (%),MMP-2; MMP-2; concentration 0.12 µM,102.86
same,remaining activity (%),MMP-2; MMP-2; concentration 0.49 µM,110.62
same,remaining activity (%),MMP-2; MMP-2; concentration 1.95 µM,101.91
same,remaining activity (%),MMP-2; MMP-2; concentration 7.81 µM,112.01
same,remaining activity (%),MMP-2; MMP-2; concentration 31.25 µM,94.11
same,remaining activity (%),MMP-2; MMP-2; concentration 125.00 µM,93.82
same,remaining activity (%),MMP-2; MMP-2; concentration 500.00 µM,94.00
same,remaining enzyme activity (% of control),MMP-9; MMP-9; concentration 0.12 µM,103.98
same,remaining enzyme activity (% of control),MMP-9; MMP-9; concentration 0.49 µM,100.00
same,remaining enzyme activity (% of control),MMP-9; MMP-9; concentration 1.95 µM,102.00
same,remaining enzyme activity (% of control),MMP-9; MMP-9; concentration 7.81 µM,100.00
same,remaining enzyme activity (% of control),MMP-9; MMP-9; concentration 31.25 µM,108.11
same,remaining enzyme activity (% of control),MMP-9; MMP-9; concentration 125.00 µM,104.50
same,remaining enzyme activity (% of control),MMP-9; MMP-9; concentration 500.00 µM,89.34
Cc1cc(=O)[nH]c(-n2nc(C)c(CCC(=O)NCCOCCOCCNC(=O)c3cncc(O)c3)c2C)n1 [693_828 10],IC50,MMP-2; [2],186 µM
same,IC50,MMP-9; [1],201 µM
Cn1c(O)nc2cc(C(=O)NCCCCCCCCNC(=O)Cn3cnc4c(oc5ccccc54)c3=O)cnc21 [182_826 4],IC50,MMP-2; [2],439 µM
O=C(CNC(=O)NC12CC3CC(CC(C3)C1)C2)NCCOCCOCCNC(=O)c1cncc(O)c1 [66+828 Linker 10],remaining activity (%),MMP-2; MMP-2; concentration 0.07 µM,92.68
same,remaining activity (%),MMP-2; MMP-2; concentration 0.33 µM,96.27
same,remaining activity (%),MMP-2; MMP-2; concentration 1.67 µM,86.29
same,remaining activity (%),MMP-2; MMP-2; concentration 8.34 µM,96.46
same,remaining activity (%),MMP-2; MMP-2; concentration 41.72 µM,79.41
same,remaining activity (%),MMP-2; MMP-2; concentration 208.60 µM,61.20
same,remaining activity (%),MMP-2; [3],17.26
same,remaining activity (%),MMP-2; MMP-2; concentration […],100.18
same,IC50,MMP-2; [4],293 ± 32.6 µM
same,remaining enzyme activity (% of control),MMP-9; MMP-9; concentration 0.08 µM,104.97
same,remaining enzyme activity (% of control),MMP-9; MMP-9; concentration 0.39 µM,105.32
same,remaining enzyme activity (% of control),MMP-9; MMP-9; concentration 1.95 µM,97.80
same,remaining enzyme activity (% of control),MMP-9; MMP-9; concentration 9.75 µM,93.32
same,remaining enzyme activity (% of control),MMP-9; MMP-9; concentration 48.76 µM,91.82
same,remaining enzyme activity (% of control),MMP-9; MMP-9; concentration 243.80 µM,71.42
same,remaining enzyme activity (% of control),MMP-9; MMP-9; concentration 1219.00 µM,29.10
same,IC50,MMP-9; [5],521 ± 36.5 µM
O=C(Cn1cnc2c(oc3ccccc32)c1=O)NCc1c[nH]nn1 [182+787 Linker 1],remaining activity (%),"MMP-2; MMP-2, concentration 0.0156 µM",89.30
same,remaining activity (%),"MMP-2; MMP-2, concentration 0.08 µM",95.29
same,remaining activity (%),"MMP-2; MMP-2, concentration 0.39 µM",92.88
same,remaining activity (%),"MMP-2; MMP-2, concentration 1.95 µM",92.98
same,remaining activity (%),MMP-2; MMP-2; concentration 9.75 µM,84.05
same,remaining activity (%),MMP-2; MMP-2; concentration 48.76 µM,61.94
same,remaining activity (%),MMP-2; MMP-2; concentration 243.80 µM,24.12
same,remaining activity (%),MMP-2; MMP-2; concentration 1219.00 µM,0.00
same,IC50,MMP-2; [4],95.5 ± 35.1 µM
same,remaining enzyme activity (% of control),"MMP-9; MMP-9, concentration 0.08 µM",89.67
same,remaining enzyme activity (% of control),"MMP-9; MMP-9, concentration 0.39 µM",88.12
same,remaining enzyme activity (% of control),"MMP-9; MMP-9, concentration 1.95 µM",85.78
same,remaining enzyme activity (% of control),"MMP-9; MMP-9, concentration 9.75 µM",75.76
same,remaining enzyme activity (% of control),"MMP-9; MMP-9, concentration 48.76 µM",77.96
same,remaining enzyme activity (% of control),"MMP-9; MMP-9, concentration 243.80 µM",22.66
same,remaining enzyme activity (% of control),"MMP-9; MMP-9, concentration 1219.00 µM",0.00
same,IC50,MMP-9; [5],143 ± 32.6 µM
O=C(CCC(=O)NCc1c[nH]nn1)NCCOCCOCCNC(=O)CNC(=O)NC12CC3CC(CC(C3)C1)C2 [66_787 10],IC50,MMP-2; [2],578 µM
O=C(CNC(=O)NC12CC3CC(CC(C3)C1)C2)NCCCCCCCCNC(=O)c1cncc(O)c1 [66_828 4],IC50,MMP-9; [1],247 µM
Cn1c(O)nc2cc(C(=O)NCCOCCOCCNC(=O)Cn3cnc4c(oc5ccccc54)c3=O)cnc21 [182_826 10],IC50,MMP-9; [1],283 µM
O=C(CNC(=O)NC12CC3CC(CC(C3)C1)C2)NCCSCC(=O)NCc1c[nH]nn1 [66_787 24],IC50,MMP-2; [2],861 µM
Cn1c(O)nc2cc(C(=O)NCCNC(=O)CSCCNC(=O)Cn3cnc4c(oc5ccccc54)c3=O)cnc21 [182_826 24],IC50,MMP-9; [1],281 µM
